Laboratory results reported in PubChem BioAssay AID1259407 (Chemical Carcinogenesis Research Information System (CCRIS), 2018).
Active and inactive are the calls of the source. How the calls were made is not given here.

System: CCRIS mutagenicity, Ames/micronucleus/aberration tests
Test: CCRIS mutagenicity studies
Details: Test System: AMES SALMONELLA TYPHIMURIUM
[1] = Strain/Indicator: TA98, Metabolic Activation: NONE, Method: PREINCUBATION
[2] = Strain/Indicator: TA100, Metabolic Activation: NONE, Method: PREINCUBATION

Measured: mutagenic call

CC(C)(C)S(=O)(=O)C[C@@H](Cc1ccccc1)C(=O)N[C@@H](Cc1cnc[nH]1)C(=O)N[C@@H](CC1CCCCC1)[C@@H](O)[C@@H](O)C1CC1
inactive: Strain/Indicator: TA97, Metabolic Activation: NONE, Method: PREINCUBATION inactive; negative | Strain/Indicator: TA97, Metabolic Activation: NONE, Method: STANDARD PLATE inactive; negative | Strain/Indicator: TA97, Metabolic Activation: RAT, LIVER, S-9, PHENOBARBITAL AND BETA-NAPHTHOFLAVONE, Method: PREINCUBATION inactive; negative | Strain/Indicator: TA97, Metabolic Activation: RAT, LIVER, S-9, PHENOBARBITAL AND BETA-NAPHTHOFLAVONE, Method: STANDARD PLATE inactive; negative | [1] inactive; negative | Strain/Indicator: TA98, Metabolic Activation: NONE, Method: STANDARD PLATE inactive; negative | Strain/Indicator: TA98, Metabolic Activation: RAT, LIVER, S-9, PHENOBARBITAL AND BETA-NAPHTHOFLAVONE, Method: PREINCUBATION inactive; negative | Strain/Indicator: TA98, Metabolic Activation: RAT, LIVER, S-9, PHENOBARBITAL AND BETA-NAPHTHOFLAVONE, Method: STANDARD PLATE inactive; negative | [2] inactive; negative | Strain/Indicator: TA100, Metabolic Activation: NONE, Method: STANDARD PLATE inactive; negative | Strain/Indicator: TA100, Metabolic Activation: RAT, LIVER, S-9, PHENOBARBITAL AND BETA-NAPHTHOFLAVONE, Method: PREINCUBATION inactive; negative | Strain/Indicator: TA100, Metabolic Activation: RAT, LIVER, S-9, PHENOBARBITAL AND BETA-NAPHTHOFLAVONE, Method: STANDARD PLATE inactive; negative | Strain/Indicator: TA102, Metabolic Activation: NONE, Method: PREINCUBATION inactive; negative | Strain/Indicator: TA102, Metabolic Activation: NONE, Method: STANDARD PLATE inactive; negative | Strain/Indicator: TA102, Metabolic Activation: RAT, LIVER, S-9, PHENOBARBITAL AND BETA-NAPHTHOFLAVONE, Method: PREINCUBATION inactive; negative | Strain/Indicator: TA102, Metabolic Activation: RAT, LIVER, S-9, PHENOBARBITAL AND BETA-NAPHTHOFLAVONE, Method: STANDARD PLATE inactive; negative | Strain/Indicator: TA1535, Metabolic Activation: NONE, Method: PREINCUBATION inactive; negative | Strain/Indicator: TA1535, Metabolic Activation: NONE, Method: STANDARD PLATE inactive; negative | Strain/Indicator: TA1535, Metabolic Activation: RAT, LIVER, S-9, PHENOBARBITAL AND BETA-NAPHTHOFLAVONE, Method: PREINCUBATION inactive; negative | Strain/Indicator: TA1535, Metabolic Activation: RAT, LIVER, S-9, PHENOBARBITAL AND BETA-NAPHTHOFLAVONE, Method: STANDARD PLATE inactive; negative | Strain/Indicator: TA1537, Metabolic Activation: NONE, Method: PREINCUBATION inactive; negative | Strain/Indicator: TA1537, Metabolic Activation: NONE, Method: STANDARD PLATE inactive; negative | Strain/Indicator: TA1537, Metabolic Activation: RAT, LIVER, S-9, PHENOBARBITAL AND BETA-NAPHTHOFLAVONE, Method: PREINCUBATION inactive; negative | Strain/Indicator: TA1537, Metabolic Activation: RAT, LIVER, S-9, PHENOBARBITAL AND BETA-NAPHTHOFLAVONE, Method: STANDARD PLATE inactive; negative | Strain/Indicator: TA1538, Metabolic Activation: NONE, Method: PREINCUBATION inactive; negative | Strain/Indicator: TA1538, Metabolic Activation: NONE, Method: STANDARD PLATE inactive; negative | Strain/Indicator: TA1538, Metabolic Activation: RAT, LIVER, S-9, PHENOBARBITAL AND BETA-NAPHTHOFLAVONE, Method: PREINCUBATION inactive; negative | Strain/Indicator: TA1538, Metabolic Activation: RAT, LIVER, S-9, PHENOBARBITAL AND BETA-NAPHTHOFLAVONE, Method: STANDARD PLATE inactive; negative

CC(=O)OCc1cccc([N+](=O)[O-])c1
inactive: [1] inactive; negative | [2] inactive; negative | Strain/Indicator: TA100, Metabolic Activation: RAT, LIVER, S-9, AROCLOR 1254, Method: PREINCUBATION inactive; negative
